Laboratory results reported in patent US10124004B2, “Pyrido[3,4-d]pyrimidine derivative and pharmaceutically acceptable salt thereof” (Teijin Pharma Limited, priority 2015, dated 2018).

Experiments:
CDK4/cyclin D3 = biological target: T1, CDK4/cyclin D3 (Homo sapiens, UniProt P11802); assay: Human CDK4/cyclin D3 inhibitory activity (QS S Assist CDK4/Cyclin D3_FP Kit, IMAP fluorescence polarization); assay type: biochemical; settings: 50% inhibitory concentration against CDK4/cyclin D3, given as class symbol
T1 construct: purchased Carna Biosciences, Inc. QS S Assist CDK4/Cyclin D3_FP Kit
Procedure, shortened: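 IMAP fluorescence polarization kit: CDK4/cyclin D3 at 12.5-25 ng/well with kit ATP/substrate/metal mix in 20 mM HEPES pH 7.4, 0.01% Tween20, 2 mM DTT, 45 min at room temperature. FP read at 485/535 nm after 30 min binding; IC50 from dose-response fit of percent inhibition versus enzyme and no-enzyme controls.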

CDK2/cyclin A2 = biological target: T2, CDK2/cyclin A2 (Homo sapiens, UniProt P24941); assay: Human CDK2/cyclin A2 inhibitory activity (QS S Assist CDK2/Cyclin A2_FP Kit, IMAP fluorescence polarization); assay type: biochemical; settings: 50% inhibitory concentration against CDK2/cyclin A2, given as class symbol
T2 construct: purchased Carna Biosciences, Inc. QS S Assist CDK2/Cyclin A2_FP Kit
Procedure, shortened: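 Kinase activity read as fluorescence polarization (485/535 nm) after phosphorylated fluorescent substrate binds IMAP reagent (30 min, RT, dark). Enzyme (2.5 ng/well) reacted 60 min at RT with ATP/substrate/metal in HEPES pH 7.4 buffer with Tween 20 and DTT; no-enzyme wells define 0% activity; IC50 by curve fit.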

T1 sequence (P11802 whole entry): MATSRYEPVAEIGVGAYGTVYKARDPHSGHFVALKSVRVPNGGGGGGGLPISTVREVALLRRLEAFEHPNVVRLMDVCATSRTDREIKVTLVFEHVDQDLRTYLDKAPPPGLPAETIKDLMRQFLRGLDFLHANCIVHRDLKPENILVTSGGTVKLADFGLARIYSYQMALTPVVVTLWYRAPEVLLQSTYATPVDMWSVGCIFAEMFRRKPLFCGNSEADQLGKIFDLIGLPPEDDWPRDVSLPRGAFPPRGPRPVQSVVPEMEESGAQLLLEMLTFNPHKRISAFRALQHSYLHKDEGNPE
T1 sequence (P30281 whole entry partner): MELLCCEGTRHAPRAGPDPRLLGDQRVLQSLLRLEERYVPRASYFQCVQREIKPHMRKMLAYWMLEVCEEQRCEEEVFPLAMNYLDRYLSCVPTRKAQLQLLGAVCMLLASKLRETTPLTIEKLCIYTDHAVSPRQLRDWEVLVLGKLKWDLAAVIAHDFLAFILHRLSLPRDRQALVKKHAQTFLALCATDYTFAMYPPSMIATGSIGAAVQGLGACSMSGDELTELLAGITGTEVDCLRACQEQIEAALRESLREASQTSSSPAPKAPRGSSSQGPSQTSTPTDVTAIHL

Compound	IC50 (CDK4/cyclin D3) [nM]	IC50 (CDK2/cyclin A2) [nM]
CO[C@H](C)c1cc2cnc(Nc3ccc4c(n3)CCN(CCN(C)C)C4)nc2c(N[C@H]2CC[C@H](O)CC2)n1 [Compound 1180]	< 10	≥ 100
CN(C)CCN1CCc2nc(Nc3ncc4cc(C5CCOC5)nc(N[C@H]5CC[C@H](O)CC5)c4n3)ccc2C1 (stereo partly shown) [Compound 1181]	< 10	≥ 100
CN(C)CCN1CCc2nc(Nc3ncc4cc(C5(C)COC5)nc(N[C@H]5CC[C@H](O)CC5)c4n3)ccc2C1 [Compound 1182]	< 10	≥ 100
CC(C)Nc1nc([C@@H](C)O)cc2cnc(Nc3ccc(N4CCN(C(=O)C5CCCO5)CC4)nn3)nc12 (stereo partly shown) [Compound 1183]	< 10	≥ 100
CCCCNc1nc([C@@H](C)O)cc2cnc(Nc3ccc(CN4CCC[C@@H](O)C4)cn3)nc12 [Compound 1185]	< 10	≥ 100
CC(C)CNc1nc([C@@H](C)O)cc2cnc(Nc3ccc(CN4CCC[C@@H](O)C4)cn3)nc12 [Compound 1186]	< 10	≥ 100
C[C@@H](O)c1cc2cnc(Nc3ccc(CN4CCC[C@@H](O)C4)cn3)nc2c(N[C@H]2CC[C@H](O)CC2)n1 [Compound 1187]	< 10	≥ 100
CCCCNc1nc([C@@H](C)O)cc2cnc(Nc3ccc(CN4CCC[C@H](O)C4)cn3)nc12 [Compound 1188]	< 10	≥ 100
CC(C)CNc1nc([C@@H](C)O)cc2cnc(Nc3ccc(CN4CCC[C@H](O)C4)cn3)nc12 [Compound 1189]	< 10	≥ 100
C[C@@H](O)c1cc2cnc(Nc3ccc(CN4CCC[C@H](O)C4)cn3)nc2c(N[C@H]2CC[C@H](O)CC2)n1 [Compound 1190]	< 10	≥ 100
CC(C)Nc1nc([C@@H](C)O)cc2cnc(Nc3ccc(N4CCN(C(=O)CN(C)C)CC4)nn3)nc12 [Compound 1191]	< 10	≥ 100
CC(C)Nc1nc([C@@H](C)O)cc2cnc(Nc3ccc(CN4CCN(C(=O)C5CCCO5)CC4)cn3)nc12 (stereo partly shown) [Compound 1192]	< 10	≥ 100
CC(C)Nc1nc([C@@H](C)O)cc2cnc(Nc3ccc(CN4CCN(C(=O)C5CCOC5)CC4)cn3)nc12 (stereo partly shown) [Compound 1193]	< 10	≥ 100
CC(C)Nc1nc([C@@H](C)O)cc2cnc(Nc3ccc(CN4CCN(C(=O)CN(C)C)CC4)cn3)nc12 [Compound 1194]	< 10	≥ 100
CCCNc1nc([C@@H](C)O)cc2cnc(Nc3ccc(CN4CCC[C@@H](O)C4)cn3)nc12 [Compound 1195]	< 10	≥ 100
CC(C)Nc1nc([C@@H](C)O)cc2cnc(Nc3ccc(CN4CCC[C@@H](O)C4)cn3)nc12 [Compound 1196]	< 10	≥ 100
C[C@@H](O)c1cc2cnc(Nc3ccc(CN4CCC[C@@H](O)C4)cn3)nc2c(NC(C)(C)C)n1 [Compound 1197]	< 10	≥ 100
CCCNc1nc([C@@H](C)O)cc2cnc(Nc3ccc(CN4CCC[C@H](O)C4)cn3)nc12 [Compound 1198]	< 10	≥ 100
CC(C)Nc1nc([C@@H](C)O)cc2cnc(Nc3ccc(CN4CCC[C@H](O)C4)cn3)nc12 [Compound 1199]	< 10	≥ 100
C[C@@H](O)c1cc2cnc(Nc3ccc(CN4CCC[C@H](O)C4)cn3)nc2c(NC(C)(C)C)n1 [Compound 1200]	< 10	≥ 100
C[C@@H](O)c1cc2cnc(Nc3ccc(CN4CCN(CCO)CC4)cn3)nc2c(NC2(C)CC2)n1 [Compound 1201]	< 10	≥ 100
CCNc1nc([C@@H](C)O)c(F)c2cnc(Nc3ccc(CN4CCN(CCO)CC4)cn3)nc12 [Compound 1202]	< 10	≥ 100
CCNc1nc([C@@H](C)O)cc2cnc(Nc3ccc(CN4CCN(CCO)CC4(C)C)cn3)nc12 [Compound 1203]	10 to 100	≥ 100
C[C@@H](O)c1cc2cnc(Nc3ccc(CN4CCN(CCO)CC4)cn3)nc2c(NC2CC(F)(F)C2)n1 [Compound 1204]	< 10	≥ 100
CCNc1nc([C@@H](C)O)cc2cnc(Nc3ccc(CN4CC5CCC(C4)N5C)cn3)nc12 [Compound 1222]	< 10	≥ 100
CCCNc1nc([C@@H](C)O)cc2cnc(Nc3ccc(CN4CC5CCC(C4)N5C)cn3)nc12 [Compound 1223]	< 10	≥ 100

More lines, now with the values ahead:

IC50 (CDK4/cyclin D3) [nM]	IC50 (CDK2/cyclin A2) [nM]	Compound
< 10	≥ 100	C[C@@H](O)c1cc2cnc(Nc3ccc(CN4CCN(CCO)CC4)cn3)nc2c(NC23CC(C2)C3)n1 [Compound 1205]
< 10	≥ 100	CCCNc1nc([C@@H](C)O)cc2cnc(Nc3ccc(CN4CCN(CCO)[C@@H](C)C4)cn3)nc12 [Compound 1208]
< 10	≥ 100	CCCNc1nc([C@@H](C)O)cc2cnc(Nc3ccc(CN4CCN(CCO)[C@H](C)C4)cn3)nc12 [Compound 1209]
< 10	≥ 100	C[C@@H](O)c1cc2cnc(Nc3ccc(N4CCNCC4=O)cn3)nc2c(NC2CC(F)C2)n1 (stereo partly shown) [Compound 1210]
10 to 100	≥ 100	C[C@@H](O)c1cc2cnc(Nc3ccc(N4CCNCC4=O)cn3)nc2c(NC2CC(F)(F)C2)n1 [Compound 1211]
< 10	≥ 100	C[C@@H](O)c1cc2cnc(Nc3ccc(N4CCNCC4)cn3)nc2c(NCCCF)n1 [Compound 1212]
< 10	≥ 100	C[C@@H](O)c1cc2cnc(Nc3ccc(CN4CCN(CCO)CC4)cn3)nc2c(NCCC(F)F)n1 [Compound 1213]
< 10	≥ 100	C[C@@H](O)c1cc2cnc(Nc3ccc(CN4CCN(CCO)CC4)cn3)nc2c(NCCC(F)(F)F)n1 [Compound 1214]
< 10	≥ 100	C[C@@H](O)c1cc2cnc(Nc3ccc(CN4CCN(CCO)CC4)cn3)nc2c(NCC(C)(F)F)n1 [Compound 1215]
< 10	≥ 100	CCNc1nc([C@@H](C)O)cc2cnc(Nc3ccc(CN4CCCN(CCO)CC4)cn3)nc12 [Compound 1216]
10 to 100	≥ 100	CC(C)Nc1nc([C@H](C)O)cc2cnc(Nc3ccc(N4CCNCC4=O)cn3)nc12 [Compound 1217]
< 10	≥ 100	C[C@@H](O)c1cc2cnc(Nc3ccc(N4CCCC(C(=O)O)C4)nn3)nc2c(N[C@H]2CC[C@H](O)CC2)n1 (stereo partly shown) [Compound 1218]
< 10	≥ 100	CC(C)Nc1nc([C@@H](C)O)cc2cnc(Nc3ccc(N4CCC(N(C)C)C4)nn3)nc12 (stereo partly shown) [Compound 1219]
< 10	≥ 100	CC(C)Nc1nc([C@@H](C)O)cc2cnc(Nc3ccc(N4CCCC(N(C)C)C4)nn3)nc12 (stereo partly shown) [Compound 1220]
< 10	≥ 100	CCCNc1nc([C@@H](C)O)cc2cnc(Nc3ccc(C(=O)N4CCN(C)CC4)cn3)nc12 [Compound 1221]
< 10	≥ 100	CC(C)Nc1nc([C@@H](C)O)cc2cnc(Nc3ccc(CN4CC5CCC(C4)N5C)cn3)nc12 [Compound 1224]
< 10	≥ 100	CC(C)Nc1nc([C@@H](C)O)cc2cnc(Nc3ccc(CN4CCNCC4)nn3)nc12 [Compound 1225]
< 10	≥ 100	CO[C@H](C)c1cc2cnc(Nc3ccc(N4CCNCC4)nn3)nc2c(NCCCF)n1 [Compound 1226]
< 10	≥ 100	CO[C@H](C)c1cc2cnc(Nc3ccc(CN4CCNCC4)cn3)nc2c(NCCCF)n1 [Compound 1227]
< 10	≥ 100	CC(C)Nc1nc([C@@H](C)O)cc2cnc(Nc3ccc(N(C)CCN(C)C)cn3)nc12 [Compound 1228]
< 10	≥ 100	CC(C)Nc1nc(C2CCOC2)cc2cnc(Nc3ccc4c(n3)CCN(CCO)C4)nc12 (stereo not shown) [Compound 1229]
< 10	≥ 100	CC(C)Nc1nc(C2CCOC2)cc2cnc(Nc3ccc4c(n3)CCN(CCN(C)C)C4)nc12 (stereo not shown) [Compound 1230]
< 10	≥ 100	CC(C)Nc1nc(C2CCOC2)cc2cnc(Nc3ccc4c(n3)CCN(C(=O)CO)C4)nc12 (stereo not shown) [Compound 1231]
< 10	≥ 100	CC(C)Nc1nc(C2CCOC2)cc2cnc(Nc3ccc4c(n3)CCN(CC(=O)O)C4)nc12 (stereo not shown) [Compound 1232]
